Converted amounts (≈) assume the structure as drawn.
Tests used:
Rattus norvegicus [1] = assay: Dose normalized AUC in Sprague-Dawley rat at 3 mg/kg, po; type: ADME, organism-based; settings: in vivo
[2] = Solubility of the compound in water at pH 6.8; type: physicochemical
Rattus norvegicus [3] = assay: Dose normalized AUC in Sprague-Dawley rat at 1 mg/kg, iv; type: ADME, organism-based; settings: in vivo
[4] = Tmax in Sprague-Dawley rat at 3 mg/kg, po; type: ADME, organism-based; settings: in vivo
[5] = biological target: T1, Phosphatidylinositol 4,5-bisphosphate 3-kinase catalytic subunit alpha isoform (Homo sapiens, UniProt P42336); assay: Inhibition of P110alpha (unknown origin) by Kinase-Glo assay
[6] = biological target: T2, Phosphatidylinositol 4,5-bisphosphate 3-kinase catalytic subunit beta isoform (Homo sapiens, UniProt P42338); assay: Inhibition of P110beta (unknown origin) by Kinase-Glo assay
[7] = biological target: T3, Phosphatidylinositol 4,5-bisphosphate 3-kinase catalytic subunit delta isoform (Homo sapiens, UniProt O00329); assay: Inhibition of myristoylated human P110delta expressed in Rat1 cells assessed as inhibition of Akt phosphorylation at Serine 473 by Western blot analysis; type: cell-based
T3 sequence (O00329 whole entry): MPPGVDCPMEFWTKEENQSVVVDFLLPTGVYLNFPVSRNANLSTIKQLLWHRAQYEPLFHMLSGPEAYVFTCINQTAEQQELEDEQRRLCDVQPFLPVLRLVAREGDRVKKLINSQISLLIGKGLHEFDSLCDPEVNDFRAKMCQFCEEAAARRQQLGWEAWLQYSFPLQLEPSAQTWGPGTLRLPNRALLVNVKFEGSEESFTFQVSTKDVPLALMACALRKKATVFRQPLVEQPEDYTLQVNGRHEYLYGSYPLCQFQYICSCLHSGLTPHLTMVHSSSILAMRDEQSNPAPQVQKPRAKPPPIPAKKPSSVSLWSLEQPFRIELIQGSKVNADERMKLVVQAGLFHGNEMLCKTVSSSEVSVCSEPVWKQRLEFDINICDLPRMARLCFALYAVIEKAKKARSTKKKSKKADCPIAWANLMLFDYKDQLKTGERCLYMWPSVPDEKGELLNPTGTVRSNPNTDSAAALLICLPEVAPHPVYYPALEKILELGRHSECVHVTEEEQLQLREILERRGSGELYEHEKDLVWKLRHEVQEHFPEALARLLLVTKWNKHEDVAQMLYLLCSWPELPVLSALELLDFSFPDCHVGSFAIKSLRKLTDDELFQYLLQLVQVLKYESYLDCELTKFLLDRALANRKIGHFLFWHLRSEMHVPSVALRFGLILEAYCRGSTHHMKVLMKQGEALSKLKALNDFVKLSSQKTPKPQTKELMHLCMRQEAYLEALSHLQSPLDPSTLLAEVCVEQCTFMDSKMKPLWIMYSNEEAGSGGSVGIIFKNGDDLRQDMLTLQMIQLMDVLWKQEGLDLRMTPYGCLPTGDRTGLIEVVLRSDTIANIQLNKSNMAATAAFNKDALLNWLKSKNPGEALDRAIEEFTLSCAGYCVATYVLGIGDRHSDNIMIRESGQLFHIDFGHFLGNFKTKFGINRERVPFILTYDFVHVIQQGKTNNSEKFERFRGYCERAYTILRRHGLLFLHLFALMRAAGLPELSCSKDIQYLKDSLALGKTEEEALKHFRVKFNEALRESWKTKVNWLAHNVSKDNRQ

Rattus norvegicus [8] = assay: Dose normalized Cmax in Sprague-Dawley rat at 3 mg/kg, po; type: ADME, organism-based; settings: in vivo
[9] = biological target: Phosphatidylinositol 4,5-bisphosphate 3-kinase catalytic subunit gamma isoform (Homo sapiens, UniProt P48736); assay: Inhibition of P110gamma (unknown origin) using PI or PIP2:PS as substrate measured for 15 to 60 mins by TR-FRET analysis
[10] = biological target: T1, Phosphatidylinositol 4,5-bisphosphate 3-kinase catalytic subunit alpha isoform; assay: Inhibition of myristoylated human P110alpha expressed in Rat1 cells assessed as inhibition of Akt phosphorylation at Serine 473 by Western blot analysis; type: cell-based
[11] = Solubility of the compound in […]; type: physicochemical
[12] = Terminal half life in Sprague-Dawley rat at 1 mg/kg, iv; type: ADME, organism-based; settings: in vivo, read-out: beta t1/2 (converted)
[13] = Clearance in Sprague-Dawley rat at 1 mg/kg, iv; type: ADME, organism-based; settings: in vivo
[14] = Plasma protein binding in rat; type: ADME, cell-free; settings: read-out: PPB (converted)
[15] = Oral bioavailability in Sprague-Dawley rat at 3 mg/kg; type: ADME, organism-based; settings: in vivo
[16] = Solubility of the compound in water at pH 4; type: physicochemical
[17] = Volume of distribution at steady state in Sprague-Dawley rat at 1 mg/kg, iv; type: ADME, organism-based; settings: in vivo, read-out: Vdss
[18] = biological target: T3, Phosphatidylinositol 4,5-bisphosphate 3-kinase catalytic subunit delta isoform; assay: Inhibition of P110delta (unknown origin) using PI or PIP2:PS as substrate measured for 15 to 60 mins by TR-FRET analysis
[19] = biological target: T2, Phosphatidylinositol 4,5-bisphosphate 3-kinase catalytic subunit beta isoform; assay: Inhibition of myristoylated human P110beta expressed in Rat1 cells assessed as inhibition of Akt phosphorylation at Serine 473 by Western blot analysis; type: cell-based

T1 sequence (P42336 whole entry, canonical isoform): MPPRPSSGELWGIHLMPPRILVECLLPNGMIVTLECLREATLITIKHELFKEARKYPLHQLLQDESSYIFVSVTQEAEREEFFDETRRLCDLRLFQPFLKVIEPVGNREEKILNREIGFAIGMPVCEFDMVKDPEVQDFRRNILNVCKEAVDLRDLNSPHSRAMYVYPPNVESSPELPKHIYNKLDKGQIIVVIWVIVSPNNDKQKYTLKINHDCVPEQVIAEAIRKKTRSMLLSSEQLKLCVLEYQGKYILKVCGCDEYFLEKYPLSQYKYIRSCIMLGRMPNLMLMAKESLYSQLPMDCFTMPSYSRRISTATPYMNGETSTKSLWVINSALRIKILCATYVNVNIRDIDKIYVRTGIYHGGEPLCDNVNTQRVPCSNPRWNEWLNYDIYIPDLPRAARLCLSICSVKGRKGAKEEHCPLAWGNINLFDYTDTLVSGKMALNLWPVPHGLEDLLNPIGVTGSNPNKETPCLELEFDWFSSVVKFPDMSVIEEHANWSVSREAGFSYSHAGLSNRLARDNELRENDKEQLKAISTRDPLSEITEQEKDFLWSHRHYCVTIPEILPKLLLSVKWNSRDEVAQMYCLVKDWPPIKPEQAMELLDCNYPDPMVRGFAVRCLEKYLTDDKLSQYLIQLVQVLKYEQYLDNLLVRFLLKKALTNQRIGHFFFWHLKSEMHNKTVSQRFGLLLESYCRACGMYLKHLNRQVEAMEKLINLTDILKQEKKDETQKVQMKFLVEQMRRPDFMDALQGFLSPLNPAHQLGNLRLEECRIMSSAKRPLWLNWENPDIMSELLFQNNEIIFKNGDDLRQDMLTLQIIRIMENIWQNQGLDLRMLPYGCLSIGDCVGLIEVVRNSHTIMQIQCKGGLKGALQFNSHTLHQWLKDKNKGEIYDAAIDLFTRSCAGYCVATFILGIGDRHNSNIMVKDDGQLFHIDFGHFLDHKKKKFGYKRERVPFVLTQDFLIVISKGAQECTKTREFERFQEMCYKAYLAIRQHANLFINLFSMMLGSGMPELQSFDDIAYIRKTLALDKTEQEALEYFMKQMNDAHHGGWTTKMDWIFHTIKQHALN
T2 sequence (P42338 whole entry, canonical isoform): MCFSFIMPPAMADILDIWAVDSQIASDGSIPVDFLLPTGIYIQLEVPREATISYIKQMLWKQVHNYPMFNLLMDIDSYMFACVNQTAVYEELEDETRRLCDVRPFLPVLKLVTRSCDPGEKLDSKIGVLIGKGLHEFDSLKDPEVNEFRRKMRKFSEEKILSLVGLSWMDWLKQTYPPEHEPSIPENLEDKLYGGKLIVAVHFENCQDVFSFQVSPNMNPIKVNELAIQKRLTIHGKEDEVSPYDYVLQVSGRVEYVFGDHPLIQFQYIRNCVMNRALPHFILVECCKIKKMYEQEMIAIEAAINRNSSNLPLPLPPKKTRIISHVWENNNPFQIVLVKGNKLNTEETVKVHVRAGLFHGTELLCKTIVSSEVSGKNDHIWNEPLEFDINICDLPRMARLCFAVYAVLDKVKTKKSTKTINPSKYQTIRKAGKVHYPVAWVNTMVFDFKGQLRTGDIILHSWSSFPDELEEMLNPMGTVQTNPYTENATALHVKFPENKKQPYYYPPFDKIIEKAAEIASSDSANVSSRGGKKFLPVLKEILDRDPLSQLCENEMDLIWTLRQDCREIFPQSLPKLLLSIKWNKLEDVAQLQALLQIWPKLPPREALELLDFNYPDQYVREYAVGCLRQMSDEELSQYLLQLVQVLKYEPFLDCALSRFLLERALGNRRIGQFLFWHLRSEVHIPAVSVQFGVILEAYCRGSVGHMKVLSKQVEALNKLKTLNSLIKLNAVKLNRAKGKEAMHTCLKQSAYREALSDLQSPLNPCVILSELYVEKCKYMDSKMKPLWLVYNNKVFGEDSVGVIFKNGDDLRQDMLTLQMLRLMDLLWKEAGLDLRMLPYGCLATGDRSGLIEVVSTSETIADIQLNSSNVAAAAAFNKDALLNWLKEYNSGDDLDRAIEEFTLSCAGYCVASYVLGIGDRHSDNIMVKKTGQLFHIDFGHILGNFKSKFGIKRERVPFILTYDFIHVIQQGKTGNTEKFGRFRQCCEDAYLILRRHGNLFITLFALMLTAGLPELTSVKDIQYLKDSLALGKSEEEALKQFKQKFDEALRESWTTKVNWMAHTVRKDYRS
Chain of Phosphatidylinositol 4,5-bisphosphate 3-kinase catalytic subunit gamma isoform (P48736 whole entry, canonical isoform): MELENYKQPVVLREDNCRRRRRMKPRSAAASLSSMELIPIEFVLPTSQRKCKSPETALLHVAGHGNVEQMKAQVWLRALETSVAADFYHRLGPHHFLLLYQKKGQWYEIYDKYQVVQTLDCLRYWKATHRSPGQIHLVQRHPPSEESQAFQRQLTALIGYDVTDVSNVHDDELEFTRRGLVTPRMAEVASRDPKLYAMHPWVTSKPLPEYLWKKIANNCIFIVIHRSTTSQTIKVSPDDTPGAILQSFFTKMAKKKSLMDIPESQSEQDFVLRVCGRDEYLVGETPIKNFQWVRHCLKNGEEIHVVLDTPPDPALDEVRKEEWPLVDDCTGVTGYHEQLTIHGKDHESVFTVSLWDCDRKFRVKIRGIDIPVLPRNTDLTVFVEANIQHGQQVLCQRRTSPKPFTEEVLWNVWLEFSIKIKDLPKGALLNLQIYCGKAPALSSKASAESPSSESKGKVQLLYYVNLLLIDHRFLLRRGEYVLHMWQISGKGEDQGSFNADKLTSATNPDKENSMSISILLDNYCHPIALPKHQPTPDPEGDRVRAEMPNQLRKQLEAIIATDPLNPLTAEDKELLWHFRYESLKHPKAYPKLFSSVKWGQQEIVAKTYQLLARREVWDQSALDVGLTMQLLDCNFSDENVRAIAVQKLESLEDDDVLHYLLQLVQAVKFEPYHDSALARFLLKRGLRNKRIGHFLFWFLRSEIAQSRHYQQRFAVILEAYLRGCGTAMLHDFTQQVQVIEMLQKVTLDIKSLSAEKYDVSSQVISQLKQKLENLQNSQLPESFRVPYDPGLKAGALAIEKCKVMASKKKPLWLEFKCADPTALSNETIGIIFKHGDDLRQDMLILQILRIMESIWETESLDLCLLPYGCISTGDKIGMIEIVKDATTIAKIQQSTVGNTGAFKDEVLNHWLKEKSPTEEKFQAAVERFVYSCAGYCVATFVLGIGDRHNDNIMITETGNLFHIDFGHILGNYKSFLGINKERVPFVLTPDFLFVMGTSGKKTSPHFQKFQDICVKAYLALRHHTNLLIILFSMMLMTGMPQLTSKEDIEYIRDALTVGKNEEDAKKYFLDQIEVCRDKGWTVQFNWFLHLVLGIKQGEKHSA

With C[C@@H]1CCN(C(=O)Nc2nc3c(s2)-c2cc(C(C)(C)C(F)(F)F)ncc2OC3)[C@@H]1C(N)=O the AUC/dose (Rattus norvegicus [1]) was 228 nM·h, the solubility [2] was 260 µM (≈ 122 µg/mL) and the AUC/dose (Rattus norvegicus [3]) was 1368 nM·h. For the same compound, the Tmax [4] was 1.2 h, the IC50 [5] was 5 nM and the IC50 [6] was 670 nM. It also gave an IC50 [7] of 540 nM, a Cmax/dose (Rattus norvegicus [8]) of 61 nM and an IC50 [9] of 200 nM. For the same compound, the IC50 [10] was 11 nM, the solubility [11] was 410 µM (≈ 192 µg/mL) and the half-life [12] was 1.4 h. The clearance [13] was 27 mL/min/kg, the fraction unbound [14] was 0.033 and the bioavailability [15] was 17%. It also gave a solubility [16] of 450 µM (≈ 211 µg/mL), a Vd [17] of 1.8 L/kg and an IC50 [18] of 220 nM. It also gave an IC50 [19] of 1110 nM.

Cc1nc(NC(=O)N2CC[C@@H](C)[C@H]2C(N)=O)sc1-c1ccnc(C(C)(C)C(F)(F)F)c1 showed a solubility [2] of 23 µM (≈ 10.5 µg/mL), an IC50 [5] of 19 nM and an IC50 [6] of 1040 nM. For the same compound, the IC50 [7] was 616 nM, the IC50 [9] was 230 nM and the IC50 [10] was 19 nM. For the same compound, the solubility [11] was 31 µM (≈ 14.1 µg/mL), the solubility [16] was 35 µM (≈ 15.9 µg/mL) and the IC50 [18] was 390 nM. For the same compound, the IC50 [19] was 2000 nM.
